Patent US20230286973A1, “PROTEIN SECRETION INHIBITORS” (KEZAR LIFE SCIENCES, priority 2020, published 2023)

Columns and labels:
[1] = test system: TNFα-FL/Gaussia Luciferase; assay: Dox Induced TNFα-FL-Gluc Assay; type: cell-based; settings: for IC50: 24 hr Dox induction, 293FRT/TO cells, read-out: 24 hr Dox Inducible TNFaFLGluc 293FRT/TO: Mean IC50; for 24 hr Dox Inducible TNFaFLGluc 293FRT/TO: TNF/PD1: ratio of TNFaFLGluc IC50 to PD1ssGluc IC50
Method in brief: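 Compound was added with doxycycline to cells plated a day earlier, incubating at 37° C under 5% CO2. The reporter line is 293 T-REx expressing a TNFα (1-233)–Gaussia luciferase fusion under tetracycline-regulated control.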

[2] = test system: HER3-ss+4aa/Gaussia Luciferase; assay: Dox-Induced Her3-ss-Gluc Assay; type: cell-based; settings: 24 hr Dox induction; 293FRT/TO cells; read-out: 24 hr Dox Inducible Her3(ss + 4)Gluc 293FRT/TO: Mean IC50
Method in brief: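 Compounds were diluted in DMSO/media containing doxycycline. They were added to Flp-In 293 T-REx cells plated the previous day, then incubated at 37 °C under 5% CO2. These cells stably express, under T-REx control, Gaussia luciferase fused to the HER3 signal sequence plus 4 amino acids.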

[3] = test system: multiple myeloma cell line U266B1; assay: U266 Cell Viability Assay; type: cell-based, human; settings: Homo sapiens, U-266, 48 h, U266B1 cells, Celltiter-Glo
Method in brief: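 CellTiter-Glo luminescence was read after a 48 h compound exposure (37 °C, 5% CO2) of human U266B1 myeloma cells grown in 10% FBS-supplemented RPMI 1640. Data for structures shown without defined stereochemistry refer to stereoisomer mixtures.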

[4] = Liver Microsome Stability Assay (human); settings: human liver microsomes, with NADPH, 1.0 uM compound
Experimental: (§1) Stability of a compound was assessed in the presence of liver microsomes from various sources—mouse, rat, monkey and human liver microsomes. 1.0 uM compound, 0.4% DMSO in 0.1 M Potassium Phosphate with 1.0 mg/mL liver microsomes, were incubated at 37° C. with or without 1 mM NADPH. The samples were quenched at 0, and 30 minutes.

[5] = test system: PD1-ss+10aa/Gaussia Luciferase; assay: Dox-Induced PD1-ss-Gluc Assay; type: cell-based; settings: 24 hr Dox induction; 293FRT/TO cells; read-out: 24 hr Dox Inducible PD1ssGluc 293FRT/TO: Mean IC50
Method in brief: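 Flp-In 293 T-REx, stable line; Tet-regulated PD1-ss+10aa fused to Gaussia luciferase; plated day prior; cpd + doxycycline in DMSO/media; 37 °C, 5% CO2.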

[6] = Liver Microsome Stability Assay (rat); settings: rat liver microsomes, with NADPH, 1.0 uM compound
Experimental: as §1

[7] = test system: IL-2-FL/Gaussia Luciferase; assay: Dox Induced IL2-FL-Gluc Assay; type: cell-based; settings: for IC50: 24 hr Dox induction, 293FRT/TO cells, read-out: 24 hr Dox Inducible IL2FLGluc 293FRT/TO: Mean IC50; for 24 hr Dox Inducible IL2FLGluc 293FRT/TO: IL2/PD1: ratio of IL2FLGluc IC50 to PD1ssGluc IC50
Method in brief: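 Compounds in DMSO/medium with doxycycline were applied to a 293 T-REx stable line expressing an IL-2 (aa 1-153)–Gaussia luciferase fusion under tetracycline-regulated control, cells seeded one day earlier; incubation at 37 °C, 5% CO2. Structures drawn without stereochemistry were tested as stereoisomer mixtures.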

[8] = Liver Microsome Stability Assay (mouse); settings: mouse liver microsomes, with NADPH, 1.0 uM compound
Experimental: as §1

[9] = Liver Microsome Stability Assay (monkey); settings: monkey liver microsomes, with NADPH, 1.0 uM compound
Experimental: as §1

[10] = test system: multiple myeloma cell line NCI-H929; assay: H929 Cell Viability Assay; type: cell-based, human; settings: Homo sapiens, NCI-H929, 48 h, NCI-H929 cells, Celltiter-Glo
Method in brief: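 Luminescent CellTiter-Glo read-out of viability after a 48 h exposure (37° C, 5% CO2) of NCI-H929 myeloma cells to compound dilutions in RPMI 1640 plus 10% FBS. Data for structures drawn without stereochemistry refer to stereoisomer mixtures.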

| IC50 [1] | IC50 [2] | EC50 [3] | Liver Microsome Stability (Multiple Species): Human - % Remaining after 30 min w/NADPH [4] | IC50 [5] | Liver Microsome Stability (Multiple Species): Rat - % Remaining after 30 min w/NADPH [6] | IC50 [7] | Liver Microsome Stability (Multiple Species): Mouse - % Remaining after 30 min w/NADPH [8] | Liver Microsome Stability (Multiple Species): Monkey - % Remaining after 30 min w/NADPH [9] | EC50 [10] | Structure (SMILES) | 24 hr Dox Inducible TNFaFLGluc 293FRT/TO: TNF/PD1 [1] | 24 hr Dox Inducible IL2FLGluc 293FRT/TO: IL2/PD1 [7] |
| --- | --- | --- | --- | --- | --- | --- | --- | --- | --- | --- | --- | --- |
| 0.643 µM | 0.127 µM | > 25 µM | 1.29% | 0.0645 µM | 16% | 0.135 µM | 18.3% | 0.22% | 1.52 µM | CC(=O)N1CCC(Oc2ccc(N3CCC[C@@H]3c3csc(NC(=O)c4cccn4Cc4ccnc(F)c4)n3)nc2)CC1 [Compound A154, (R)-N-(4-(1-(5-((1-acetylpiperidin-4-yl)oxy)pyridin-2-yl)pyrrolidin-2-yl)thiazol-2-yl)-1-((2-fluoropyridin-4-yl)methyl)-1H-pyrrole-2-carboxamide] | 9.97 | 2.1 |
| 1.34 µM | 0.0866 µM | > 25 µM | 1.07% | 0.08 µM | 8.23% | 0.189 µM | 16.9% | 0.17% | 2.86 µM | CC(=O)N1CCC(Oc2ccc(N3CCC[C@@H]3c3csc(NC(=O)c4cccn4Cc4ccnc(F)c4)n3)cn2)CC1 [Compound A155, (R)-N-(4-(1-(6-((1-acetylpiperidin-4-yl)oxy)pyridin-3-yl)pyrrolidin-2-yl)thiazol-2-yl)-1-((2-fluoropyridin-4-yl)methyl)-1H-pyrrole-2-carboxamide] | 16.8 | 2.4 |
| 1.56 µM | 0.273 µM | > 25 µM | 10.3% | 0.115 µM | 34.1% | 0.349 µM | 38.2% | 1.75% | 2.96 µM | NC(=O)N1CCC(Oc2ccc(N3CCC[C@@H]3c3csc(NC(=O)c4cccn4Cc4ccnc(F)c4)n3)nc2)CC1 [Compound A156, (R)-4-((6-(2-(2-(1-((2-fluoropyridin-4-yl)methyl)-1H-pyrrole-2-carboxamido)thiazol-4-yl)pyrrolidin-1-yl)pyridin-3-yl)oxy)piperidine-1-carboxamide] | 13.5 | 3 |
| 0.407 µM | 0.0497 µM | > 25 µM | 22.9% | 0.0422 µM | 2.44% | 0.0522 µM | 0.84% | 13.2% | 1.47 µM | O=C(Nc1nc([C@H]2CCCN2c2ccc(OC3CSC3)cc2)cs1)c1cccn1Cc1ccnc(F)c1 [Compound A157, (R)-1-((2-fluoropyridin-4-yl)methyl)-N-(4-(1-(4-(thietan-3-yloxy)phenyl)pyrrolidin-2-yl)thiazol-2-yl)-1H-pyrrole-2-carboxamide] | 9.64 | 1.2 |

Further lines, the compound ahead of its results:

| Structure (SMILES) | IC50 [1] | IC50 [2] | EC50 [3] | Liver Microsome Stability (Multiple Species): Human - % Remaining after 30 min w/NADPH [4] | IC50 [5] | Liver Microsome Stability (Multiple Species): Rat - % Remaining after 30 min w/NADPH [6] | IC50 [7] | Liver Microsome Stability (Multiple Species): Mouse - % Remaining after 30 min w/NADPH [8] | Liver Microsome Stability (Multiple Species): Monkey - % Remaining after 30 min w/NADPH [9] | EC50 [10] | 24 hr Dox Inducible TNFaFLGluc 293FRT/TO: TNF/PD1 [1] | 24 hr Dox Inducible IL2FLGluc 293FRT/TO: IL2/PD1 [7] |
| --- | --- | --- | --- | --- | --- | --- | --- | --- | --- | --- | --- | --- |
| N#Cc1cc(C(=O)Nc2nc([C@H]3CCCN3c3ccccc3)cs2)n(Cc2ccnc(F)c2)c1 [Compound A149, (R)-4-cyano-1-((2-fluoropyridin-4-yl)methyl)-N-(4-(1-phenylpyrrolidin-2-yl)thiazol-2-yl)-1H-pyrrole-2-carboxamide] | 1.01 µM | 0.126 µM | 4.39 µM | 25.9% | 0.0681 µM | 17.1% | 0.152 µM | 46% | 9.8% | 2.54 µM | 14.9 | 2.2 |
| NS(=O)(=O)N1CC(Oc2ccc(N3CCC[C@@H]3c3csc(NC(=O)c4cccn4Cc4ccnc(F)c4)n3)cc2)C1 [Compound A150, (R)-1-((2-fluoropyridin-4-yl)methyl)-N-(4-(1-(4-((1-sulfamoylazetidin-3-yl)oxy)phenyl)pyrrolidin-2-yl)thiazol-2-yl)-1H-pyrrole-2-carboxamide] | 0.758 µM | 0.0821 µM | > 25 µM | 17.4% | 0.0492 µM | 51.6% | 0.13 µM | 36.3% | 0.71% | 3.27 µM | 15.4 | 2.6 |
| CNS(=O)(=O)N1CC(Oc2ccc(N3CCC[C@@H]3c3csc(NC(=O)c4cccn4Cc4ccnc(F)c4)n3)cc2)C1 [Compound A151, (R)-1-((2-fluoropyridin-4-yl)methyl)-N-(4-(1-(4-((1-(N-methylsulfamoyl)azetidin-3-yl)oxy)phenyl)pyrrolidin-2-yl)thiazol-2-yl)-1H-pyrrole-2-carboxamide] | 0.386 µM | 0.0431 µM | > 25 µM | 7.69% | 0.0215 µM | 38.3% | 0.059 µM | 15.3% | 0.95% | 1.39 µM | 17.9 | 2.7 |
| NC(=O)c1cc(C(=O)Nc2nc([C@H]3CCCN3c3ccccc3)cs2)n(Cc2ccnc(F)c2)c1 [Compound A152, (R)-1-((2-fluoropyridin-4-yl)methyl)-N2-(4-(1-phenylpyrrolidin-2-yl)thiazol-2-yl)-1H-pyrrole-2,4-dicarboxamide] | > 25 µM | 2.13 µM | > 25 µM | 44.4% | 2.41 µM | 24.1% | 3.28 µM | 48.9% | 28.1% | 13.2 µM | >10.4 | 1.4 |
| C[S+]([O-])N1CC(Oc2ccc(N3CCC[C@@H]3c3csc(NC(=O)c4cccn4Cc4ccnc(F)c4)n3)cc2)C1 (stereo partly drawn) [Compound A153, 1-((2-fluoropyridin-4-yl)methyl)-N-(4-((2R)-1-(4-((1-(methylsulfinyl)azetidin-3-yl)oxy)phenyl)pyrrolidin-2-yl)thiazol-2-yl)-1H-pyrrole-2-carboxamide] | 0.877 µM | 0.0648 µM | > 25 µM | 1.88% | 0.0374 µM | 19.8% | 0.0904 µM | 1.09% | 2.49% | 1.02 µM | 23.5 | 2.4 |
